In PubChem BioAssay (NCI):
Where “and” joins values, the source holds several entries; their conditions need not be identical. Equal entries are not always repeated.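 Interpolation was linear, between the two tested concentrations surrounding the appropriate level; five concentrations were tested over 48 hours in 96-well plates. At the GI50, growth is halved. TGI: total growth inhibition.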

Assays:
Assay in all cases: NCI tumour cell line growth inhibition, 48 h
[1] = test system: A498 renal
[2] = test system: HCT-116 colon
[3] = test system: HCT-15 colon
[4] = test system: HL-60(TB) leukemia
[5] = test system: HOP-92 NSCLC
[6] = test system: K-562 leukemia
[7] = test system: LOX IMVI melanoma
[8] = test system: OVCAR-4 ovarian
[9] = test system: RXF 393 renal
[10] = test system: SF-295 CNS

| SMILES | GI50 [1] | TGI [1] | GI50 [2] | TGI [2] | GI50 [3] | TGI [3] | GI50 [4] | TGI [4] | GI50 [5] | TGI [5] | GI50 [6] | TGI [6] | GI50 [7] | TGI [7] | GI50 [8] | TGI [8] | GI50 [9] | TGI [9] | GI50 [10] | TGI [10] |
| --- | --- | --- | --- | --- | --- | --- | --- | --- | --- | --- | --- | --- | --- | --- | --- | --- | --- | --- | --- | --- |
| c1ccc2c(c1)[O][Sn][O]2 | 41.2 µg/mL | > 150 µg/mL | 19.8 µg/mL | > 150 µg/mL | 20.6 µg/mL | > 150 µg/mL | 1.55 µg/mL | 6.37 µg/mL | 64.8 µg/mL | > 150 µg/mL | 91.6 µg/mL | > 150 µg/mL | 27.8 µg/mL | 112 µg/mL | 102 µg/mL | > 150 µg/mL | 23.4 µg/mL | 120 µg/mL | > 150 µg/mL | > 150 µg/mL |
| CC1(C)OC2OC(COC(=O)C(c3ccccc3)c3ccccc3)C3OC(C)(C)OC3C2O1 (stereo unspecified) | > 100 µM | > 100 µM |  |  |  | > 100 µM | 2.99 µM | 13.8 µM |  | > 100 µM |  | > 100 µM |  | > 100 µM |  | > 100 µM |  | > 100 µM |  | > 100 µM |
| O=c1[nH]c(=O)n(C2CC(O)C(O)C(CO)O2)cc1F (stereo unspecified) |  | > 100 µM |  | > 100 µM |  | > 100 µM |  | > 100 µM |  | > 100 µM |  | > 100 µM |  | > 100 µM |  | > 100 µM |  | > 100 µM |  | > 100 µM |
| O=C(O)C1=C(C(=O)O)Oc2ccccc2O1 |  | > 100 µM |  | > 100 µM |  | > 100 µM |  | > 100 µM |  | > 100 µM |  | > 100 µM |  | > 100 µM |  | > 100 µM |  | > 100 µM |  | > 100 µM |
| COc1cc2c(cc1OC)C(SC)C(=O)N(Cc1cccc(OC)c1OC)CC2 (stereo unspecified) |  | > 54.9 µM |  | > 70.2 µM |  | > 74 µM |  | 5.63 µM |  | 16.9 µM |  | 41.4 µM |  | > 83.3 µM |  | 98.5 µM |  | > 48.1 µM |  | > 43.6 µM |
| Nc1ccn([C@@H]2S[C@H](CO)[C@@H](O)[C@@H]2F)c(=O)n1 | 0.0709 µM |  | 0.0393 µM | > 100 µM | 0.413 µM | > 100 µM | 0.0792 µM |  | 0.278 µM | > 100 µM | 0.23 µM | > 100 µM | 0.224 µM | > 100 µM | > 100 µM | > 100 µM | 0.289 µM | > 22.4 µM | 0.452 µM | > 24.7 µM |
| Cc1c(C)c2ccc(OC(C)C(=O)O)cc2oc1=O (stereo unspecified) |  | > 100 µM |  | > 100 µM |  |  |  | > 100 µM |  | > 100 µM |  | > 100 µM |  | > 100 µM |  | > 100 µM |  | > 100 µM |  | > 100 µM |
| CCc1ccc(C2=NN(c3ccc(S(C)(=O)=O)cc3)C(=O)CC2)cc1 | 0.322 µM | 4.46 µM | 0.942 µM | > 39.2 µM | 1.38 µM | > 100 µM | 1.2 µM | 6.35 µM | 1.86 µM | 23.7 µM | 0.488 µM | > 100 µM | 2.93 µM | > 100 µM | 7.14 µM | > 91.5 µM | 2.05 µM | 15.4 µM | 0.904 µM | 8.54 µM |
| COc1ccc(C(=O)/C=C/c2ccc(OCc3ccccc3)c(OC)c2)cc1OC | 3.24 µM | 25.3 µM | 3.19 µM | > 100 µM | 2.78 µM | > 100 µM | 3.67 µM | 32.5 µM | 1.4 µM | 5.81 µM | 3.4 µM | > 100 µM | 2.84 µM | 24.1 µM | 5.01 µM | > 100 µM | 2.32 µM | 5.9 µM |  |  |
| Cn1c(CC(O)c2nc3ccccc3n2C)nc2ccccc21 (stereo unspecified) |  | > 51.1 µM |  | > 34.9 µM |  | > 49.5 µM |  | 4.13 µM |  | > 38.7 µM |  | > 47.9 µM |  | > 47.7 µM |  | > 30.1 µM |  | > 39.4 µM |  | > 100 µM |
| CN(c1ccc(NC(=O)NCCN2CCOCC2)cc1)c1ccnc(Nc2ccc(CS(C)(=O)=O)cc2)n1 | > 25 µM | > 25 µM | > 25 µM | > 25 µM | > 25 µM | > 25 µM | > 25 µM | > 25 µM | 19.2 µM | > 25 µM | > 25 µM | > 25 µM | > 25 µM | > 25 µM | 19.8 µM | > 25 µM | > 25 µM | > 25 µM | > 25 µM | > 25 µM |
| N=C(N)c1ccc(OCCCCCOc2ccc(C(=N)N)cc2)cc1 | 7.24 µM | > 50 µM | 4.59 µM | > 50 µM and 37.8 µM and > 100 µM | 7.57 µM | > 100 µM | 7.34 µM | 24 µM and 56 µM and > 100 µM | 1.89 µM | 21.5 µM and > 100 µM | 2.8 µM | 32.7 µM and 15.4 µM and > 100 µM | 8.47 µM | 28.8 µM and 37.8 µM and 36.4 µM | 3.6 µM | 18.7 µM and 35.4 µM and 53.5 µM | 6.75 µM | 17.5 µM and 38.6 µM |  | 19.7 µM and 21.3 µM and 77.1 µM |
| CC1=C(C(=O)CC(=O)C(=O)Nc2ccccc2C)Sc2ccccc2N1 |  | > 100 µM |  | > 55.8 µM |  | > 100 µM |  | > 100 µM |  | > 100 µM |  | > 100 µM |  | > 57.4 µM |  | > 100 µM |  | > 100 µM |  | > 100 µM |
| Cc1cc(OC(=O)c2c(C)cc(OC(=O)c3c(C)cc(O)cc3O)cc2O)cc(O)c1C(=O)O |  | > 100 µM |  |  |  |  |  | > 100 µM |  | > 100 µM |  | > 100 µM |  | > 100 µM |  | > 100 µM |  | > 100 µM |  | > 100 µM |
| OC1CSCCSCCCSCCSC1 |  | > 100 µM |  | > 100 µM |  | > 100 µM |  | > 100 µM |  | > 100 µM |  | > 100 µM |  | > 100 µM |  | > 100 µM |  | > 100 µM |  | > 100 µM |
| Cc1cc2c(cc1C)[n+](=O)c(C(=O)/C=C/c1ccccc1[N+](=O)[O-])c(C)n2[O-] |  | 91.8 µM |  | > 100 µM |  | > 100 µM |  | > 100 µM |  | 67.4 µM |  | > 100 µM |  | > 100 µM |  | > 100 µM |  | 46.2 µM |  | 64.6 µM |
| O=C(/C=C/c1cccc(Oc2ccc(Cl)cc2)c1)c1ccccc1 | 163 µM | 312 µM | 20.6 µM | 41.7 µM | 18.7 µM | 44.6 µM | 23.4 µM | 58.4 µM | 21.8 µM | 50.1 µM |  |  | 16.9 µM | 33 µM | 75 µM | 234 µM | 44.2 µM | 152 µM | 60 µM | 196 µM |
